According to ChEMBL document CHEMBL1201862, “PubChem BioAssay data set” (2004):
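A five-concentration, 48-hour dose response in 96-well plates underlies each endpoint, interpolated linearly between surrounding concentrations. The concentration for 50% growth inhibition is given as GI50.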 Active and inactive are the calls of the source. No stated cut-off is given here; in the data, active = GI50 up to about 1.1 µM and inactive = higher.

How the values were obtained:
Experiment in all cases: NCI-60 cell line screen, 48 h
LXFL 529 = tested on: LXFL 529
DLD-1 = tested on: DLD-1
DMS-273 = tested on: DMS-273
HOP-18 = tested on: HOP-18
SNB-78 = tested on: SNB-78
786-0 = tested on: 786-0
MDA-N = tested on: MDA-N
T47D = tested on: T47D
RXF 631 = tested on: RXF 631

Row | SMILES | GI50 (LXFL 529) | GI50 (DLD-1) | GI50 (DMS-273) | GI50 (HOP-18) | GI50 (SNB-78) | GI50 (786-0) | GI50 (MDA-N) | GI50 (T47D) | GI50 (RXF 631)
1 | COc1ccccc1N1C(Cl)C(=O)C1c1c[nH]c2ccccc12 (stereo unspecified) | > 100 µM (inactive) |  |  |  |  |  |  |  | 
2 | O=C1C(=O)c2cc([N+](=O)[O-])ccc2-c2ccc([N+](=O)[O-])cc21 |  | 1.64 µM (inactive) | 0.397 µM (active) | 1.71 µM (inactive) | 0.698 µM (active) |  |  |  | 
3 | CC(=O)NC1CC(C(C)(C)NC(C)=O)CC=C1C (stereo unspecified) |  |  |  |  |  | > 100 µM (inactive) | > 100 µM (inactive) | > 100 µM (inactive) | 
4 | COc1cc2c(c(OC)c1OC)-c1[nH]ncc1CC2 | > 100 µM (inactive) | > 100 µM (inactive) | > 100 µM (inactive) | > 100 µM (inactive) | > 100 µM (inactive) | > 100 µM (inactive) |  |  | 
5 | O=C(NN1C(=O)C(Cl)C1c1cccc([N+](=O)[O-])c1)c1ccccc1O (stereo unspecified) | > 100 µM (inactive) |  |  |  |  |  |  |  | 
6 | CC1C(NNC(N)=O)Oc2cc3c(cc2C1c1ccccc1O)OCO3 (stereo unspecified) |  |  |  |  |  |  | 22.3 µM (inactive) | 38.6 µM (inactive) | 
7 | CC1(C)C(=O)/C=C\C(=O)C(C)(C)C2=CC=C(O2)C(C)(C)C(=O)C(Br)C(Br)C(=O)C(C)(C)C2=CC=C1O2 (stereo unspecified) | 27.9 µM (inactive) | 13.6 µM (inactive) | 33.3 µM (inactive) | > 100 µM (inactive) | 41.8 µM (inactive) | 39.6 µM (inactive) | > 45 µM (inactive) | > 81.7 µM (inactive) | > 100 µM (inactive)
8 | Cc1ccc(S(=O)(=O)NNC2Oc3cc4c(cc3C(c3ccccc3O)C2C)OCO4)cc1 (stereo unspecified) |  |  |  |  |  |  | 12.3 µM (inactive) | 12 µM (inactive) | 
9 | [C-]#[N+]C(=C\c1ccc(O)cc1)/C(=C/c1ccc(O)cc1)[N+]#[C-] [XANTOCILLIN] |  |  |  |  |  | 6.4 µM (inactive) | 1.47 µM (inactive) | 3.34 µM (inactive) | 
10 | CCCCCCCCCCCCCCCCOCC(COP(=O)([O-])OCC[N+](C)(C)C)OCCCCCCCCCCCCCCCC (stereo unspecified) |  | > 100 µM (inactive) | > 100 µM (inactive) | > 100 µM (inactive) | > 100 µM (inactive) |  |  |  | 
11 | CC12Nc3ccccc3N1C(=O)c1ccccc12 (stereo unspecified) |  |  |  |  |  | > 100 µM (inactive) | > 100 µM (inactive) | > 100 µM (inactive) | 
12 | COc1ccc(C(c2cc3c(cc2O)OCO3)N2CCOCC2)cc1OC (stereo unspecified) |  |  |  |  |  | 11.1 µM (inactive) |  | 16.9 µM (inactive) | 
13 | C=C1C(=O)OC2/C=C(\C)CC/C=C(/C)CC(OC(=O)/C(=C/CO)CO)C12 (stereo unspecified) |  |  |  |  |  | 23.6 µM (inactive) | 20.5 µM (inactive) | > 10 µM (inactive) | 
14 | O=C(Nc1ccc(F)cc1)c1cc2ccc(O)cc2o/c1=N\c1ccccc1F |  |  |  |  |  | 24.4 µM (inactive) | 34.6 µM (inactive) | 14.8 µM (inactive) | 
15 | CC(=O)O[C@H]1[C@@H](OC(C)=O)C(C)(C)/C=C/[C@H](C)C(=O)[C@@]2(OC(C)=O)C[C@@](C)(OC(C)=O)[C@H](OC(C)=O)[C@@H]2[C@H]2OC(=O)CC[C@@]2(OC(=O)c2ccccc2)[C@@H]1OCC(C)C |  |  |  |  |  |  | 7.11 µM (inactive) | 58.5 µM (inactive) | 
16 | C=C(CCCO)[C@@H]1CC[C@@](C)(O)[C@H]1C | > 100 µM (inactive) | > 10 µM (inactive) | > 100 µM (inactive) | > 100 µM (inactive) | > 100 µM (inactive) | > 100 µM (inactive) |  |  | > 100 µM (inactive)
17 | O=C1C(=CNC(=S)c2ccccc2)C(=O)c2ccccc21 |  |  |  |  |  | 27.5 µM (inactive) | 52.7 µM (inactive) | 60.1 µM (inactive) | 
18 | Nc1c(C(=O)Nc2ccc(C3=NCCN3)cc2)cccc1C(=O)Nc1ccc(C2=NCCN2)cc1 |  | > 100 µM (inactive) | > 100 µM (inactive) | > 100 µM (inactive) | > 83.8 µM (inactive) |  |  |  | 
19 | COc1cc(/C=C2\C(=O)N(C(=O)Cc3ccccc3)N=C2C)cc(OC)c1OC |  | > 100 µM (inactive) | > 100 µM (inactive) | > 100 µM (inactive) | > 100 µM (inactive) | > 100 µM (inactive) |  |  | 
20 | NC1C2C=CC(C2)C1C(=O)O (stereo unspecified) |  |  |  |  |  | > 100 µM (inactive) | > 100 µM (inactive) | > 100 µM (inactive) | 
21 | NC(CCOCCP(=O)(O)CCC1C=CC=CC1)C(=O)O (stereo unspecified) |  |  |  |  |  |  | > 100 µM (inactive) | 43.3 µM (inactive) | 
22 | CC(=O)Nc1ccc(C2=N/C(=C\c3ccc(Cl)c(Cl)c3)C(=O)O2)cc1 | > 100 µM (inactive) | 64 µM (inactive) | 80.4 µM (inactive) | > 100 µM (inactive) | > 100 µM (inactive) |  |  |  | > 100 µM (inactive)
23 | Cn1c(=O)nc2n(-c3ccc(Cl)cc3Cl)c3ccccc3nc-2c1=O |  | 3.29 µM (inactive) |  | 11 µM (inactive) | 14.6 µM (inactive) |  |  |  | 
24 | C=C1CC(OC)(C(O)C(=O)N[C@H]2OCO[C@H]3C2O[C@H](C[C@@H](CO)OC)C(C)(C)C3OC)O[C@H](C)[C@@H]1C (stereo partly specified) |  | < 0.00931 µM (active) | < 0.00931 µM (active) | < 0.00931 µM (active) |  |  |  |  | 
25 | O=C1C=CC2(O[C@@H](Cc3ccccc3)[C@H](Cc3ccccc3)O2)C(SC(=O)c2ccccc2)C1 (stereo partly specified) |  |  |  |  |  | 0.152 µM (active) | 0.853 µM (active) | 0.764 µM (active) | 
26 | Cc1cc2nc3c(C)c4ccccc4c(C)n3c2cc1C |  |  |  |  |  | 1.24 µM (inactive) | 1.89 µM (inactive) | > 10 µM (inactive) | 
27 | Cn1c(=O)ccc2c(=O)c3ccccc3oc21 |  |  |  |  |  |  | > 100 µM (inactive) | > 100 µM (inactive) | 
28 | O=C(/C=C/CC(O)(c1ccccc1)c1ccccc1)Nc1ccccc1Cl | > 100 µM (inactive) | > 100 µM (inactive) |  |  |  |  |  |  | 
29 | CCN(CC)c1c(C)c(C(=O)OC)nn1-c1ccccc1 |  | > 100 µM (inactive) | > 100 µM (inactive) | > 100 µM (inactive) | > 100 µM (inactive) |  |  |  | 
30 | c1ccc(CN2CCC3(CC2)SSC2(CCN(Cc4ccccc4)CC2)SS3)cc1 |  |  |  |  |  | > 100 µM (inactive) | > 100 µM (inactive) | > 100 µM (inactive) | 
